Calls of active or inactive are those of the source.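 How the source made its calls: active means at least 50% inhibition of LYPLA1 or LYPLA2 at 300 nM, with no off-target enzyme hit at any dose; inactive means under 50% inhibition on both enzymes, or any off-target hit.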
What was measured:
[1] = target: Acyl-protein thioesterase 1 (Homo sapiens) (UniProt O75608); assay: LYPLA1 inhibitor selectivity over serine hydrolases, late-stage follow-up, selectivity assay for LYPLA1 inhibitor project, cell lysate, competitive ABPP, HEK293T proteome, set 2 (AID 652018); details: competitive ABPP FP-PEG-Rh gel, stronger effect = higher value;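 further: 0% = DMSO-only band intensity and 100% = blank gel background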
Acyl-protein thioesterase 1 (Homo sapiens), sequence (O75608 whole entry, looked up): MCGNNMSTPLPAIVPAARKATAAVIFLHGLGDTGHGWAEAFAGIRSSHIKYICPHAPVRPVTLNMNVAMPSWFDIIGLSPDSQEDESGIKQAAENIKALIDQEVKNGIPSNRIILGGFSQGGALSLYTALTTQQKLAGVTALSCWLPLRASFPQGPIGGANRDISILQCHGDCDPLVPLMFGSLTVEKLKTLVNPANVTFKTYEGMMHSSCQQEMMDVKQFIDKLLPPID

[2] = target: Acyl-protein thioesterase 2 (Homo sapiens) (UniProt O95372); assay: as above; details: competitive ABPP FP-PEG-Rh gel, stronger effect = higher value
Acyl-protein thioesterase 2 (Homo sapiens), sequence (O95372 whole entry, looked up): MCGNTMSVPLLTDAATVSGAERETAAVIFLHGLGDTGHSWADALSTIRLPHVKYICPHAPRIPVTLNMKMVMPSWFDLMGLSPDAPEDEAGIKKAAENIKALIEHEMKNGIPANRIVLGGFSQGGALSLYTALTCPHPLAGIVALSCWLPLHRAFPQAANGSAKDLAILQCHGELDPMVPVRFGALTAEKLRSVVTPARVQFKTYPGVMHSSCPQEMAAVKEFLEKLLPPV

| SMILES | inhibition ([1]; LYPLA1, at 10 µM) | inhibition ([1]; LYPLA1, inhibition, at 0.3 µM) | inhibition ([1]; LYPLA1, inhibition, at 1 µM) | inhibition ([2]; LYPLA2, at 10 µM) | inhibition ([2]; LYPLA2, inhibition, at 0.3 µM) | inhibition ([2]; LYPLA2, inhibition, at 1 µM) |
| --- | --- | --- | --- | --- | --- | --- |
| COc1ccc(N2CCN(C(=O)n3nc(Br)nc3Br)CC2)cc1 | 95% (inactive) | 20% | 60% | 95% (inactive) | 10% | 30% |
| O=C(N1CCN(c2ccc(Br)cc2)CC1)n1ncc(C(O)(c2ccccc2)c2ccccc2)n1 | 100% (inactive) | 40% | 90% | 80% (inactive) | 20% | 30% |
| COc1ccc(N2CCN(C(=O)n3cncn3)CC2)cc1 | 95% (inactive) | 20% | 75% | 95% (inactive) | 10% | 30% |
| COc1ccc(N2CCN(C(=O)n3ncc(C(O)(c4ccccc4)c4ccccc4)n3)CC2)cc1 | 95% | 95% | 95% | 100% | 75% | 100% |
| COc1ccc(N2CCN(C(=O)n3ncc(-c4ccccc4)n3)CC2)cc1 | 30% (inactive) | 20% | 30% | 30% (inactive) | 10% | 30% |
| O=C(N1CCN(c2ccc(Cl)c(Cl)c2)CC1)n1ncc(C(O)(c2ccccc2)c2ccccc2)n1 | 80% (inactive) | 30% | 40% | 30% (inactive) | 20% | 30% |
| COc1ccc(N2CCN(C(=O)n3cc(-c4ccc(OC(F)(F)F)cc4)nn3)CC2)cc1 | 80% (inactive) | 20% | 20% | 60% (inactive) | 10% | 10% |
| COc1ccc(N2CCN(C(=O)n3ccnn3)CC2)cc1 | 90% (inactive) | 20% | 50% | 85% (inactive) | 10% | 30% |
| COc1ccc(N2CCN(C(=O)n3nc(Br)c(Br)n3)CC2)cc1 | 95% | 85% | 95% | 100% | 50% | 80% |
| COc1ccc(N2CCN(C(=O)n3cc(C(O)(c4ccccc4)c4ccccc4)nn3)CC2)cc1 | 95% | 85% | 95% | 100% (inactive) | 20% | 95% |

The next lines start with the values.

| inhibition ([1]; LYPLA1, at 10 µM) | inhibition ([1]; LYPLA1, inhibition, at 0.3 µM) | inhibition ([1]; LYPLA1, inhibition, at 1 µM) | inhibition ([2]; LYPLA2, at 10 µM) | inhibition ([2]; LYPLA2, inhibition, at 0.3 µM) | inhibition ([2]; LYPLA2, inhibition, at 1 µM) | SMILES |
| --- | --- | --- | --- | --- | --- | --- |
| 95% | 95% | 95% | 100% | 100% | 100% | O=C(CN1CCN(C(=O)n2ncc(C(O)(c3ccccc3)c3ccccc3)n2)CC1)Nc1cc(C(F)(F)F)ccc1Cl |
| 90% (inactive) | 30% | 30% | 95% (inactive) | 30% | 30% | O=C(CN1CCN(C(=O)n2ncc(-c3ccc(OC(F)(F)F)cc3)n2)CC1)Nc1cc(C(F)(F)F)ccc1Cl |
| 30% (inactive) | 30% | 30% | 30% (inactive) | 30% | 30% | O=C(CN1CCN(C(=O)n2cc(-c3ccc(-c4ccccc4)cc3)nn2)CC1)Nc1cc(C(F)(F)F)ccc1Cl |
| 95% (inactive) | 20% | 80% | 100% (inactive) | 10% | 60% | COc1ccc(N2CCN(C(=O)n3nccn3)CC2)cc1 |
| 20% (inactive) | 10% | 10% | 20% (inactive) | 10% | 10% | COc1ccc(N2CCN(C(=O)n3ncc(-c4ccc(OC(F)(F)F)cc4)n3)CC2)cc1 |
| 95% | 80% | 90% | 100% | 60% | 85% | O=C(CN1CCN(C(=O)n2cc(C(O)(c3ccccc3)c3ccccc3)nn2)CC1)Nc1cc(C(F)(F)F)ccc1Cl |
| 95% | 90% | 90% | 100% | 85% | 100% | O=C(CN1CCN(C(=O)n2nc(Br)c(Br)n2)CC1)Nc1cc(C(F)(F)F)ccc1Cl |
| 60% (inactive) | 30% | 30% | 30% (inactive) | 30% | 30% | O=C(CN1CCN(C(=O)n2cc(-c3ccc(OC(F)(F)F)cc3)nn2)CC1)Nc1cc(C(F)(F)F)ccc1Cl |
| 30% (inactive) | 30% | 30% | 30% (inactive) | 30% | 30% | O=C(CN1CCN(C(=O)n2ncc(-c3ccc(-c4ccccc4)cc3)n2)CC1)Nc1cc(C(F)(F)F)ccc1Cl |
| 80% | 70% | 70% | 75% | 50% | 40% | O=C(CN1CCN(C(=O)n2ncc(-c3ccc(Br)cc3)n2)CC1)Nc1cc(C(F)(F)F)ccc1Cl |
| 30% (inactive) | 30% | 30% | 30% (inactive) | 30% | 30% | O=C(CN1CCN(C(=O)n2cncn2)CC1)Nc1cc(C(F)(F)F)ccc1Cl |
| 95% (inactive) | 45% | 85% | 100% (inactive) | 40% | 75% | O=C(CN1CCN(C(=O)n2nc(Br)nc2Br)CC1)Nc1cc(C(F)(F)F)ccc1Cl |
| 95% (inactive) | 30% | 60% | 95% (inactive) | 30% | 40% | O=C(CN1CCN(C(=O)n2nccn2)CC1)Nc1cc(C(F)(F)F)ccc1Cl |
